The text below walks through data of ChEMBL document CHEMBL3769307, “Selective inhibitors of phosphodiesterases: therapeutic promise for neurodegenerative disorders” (Medchemcomm, 2015).

Chain of 3',5'-cyclic-AMP phosphodiesterase 4D (Q08499 whole entry): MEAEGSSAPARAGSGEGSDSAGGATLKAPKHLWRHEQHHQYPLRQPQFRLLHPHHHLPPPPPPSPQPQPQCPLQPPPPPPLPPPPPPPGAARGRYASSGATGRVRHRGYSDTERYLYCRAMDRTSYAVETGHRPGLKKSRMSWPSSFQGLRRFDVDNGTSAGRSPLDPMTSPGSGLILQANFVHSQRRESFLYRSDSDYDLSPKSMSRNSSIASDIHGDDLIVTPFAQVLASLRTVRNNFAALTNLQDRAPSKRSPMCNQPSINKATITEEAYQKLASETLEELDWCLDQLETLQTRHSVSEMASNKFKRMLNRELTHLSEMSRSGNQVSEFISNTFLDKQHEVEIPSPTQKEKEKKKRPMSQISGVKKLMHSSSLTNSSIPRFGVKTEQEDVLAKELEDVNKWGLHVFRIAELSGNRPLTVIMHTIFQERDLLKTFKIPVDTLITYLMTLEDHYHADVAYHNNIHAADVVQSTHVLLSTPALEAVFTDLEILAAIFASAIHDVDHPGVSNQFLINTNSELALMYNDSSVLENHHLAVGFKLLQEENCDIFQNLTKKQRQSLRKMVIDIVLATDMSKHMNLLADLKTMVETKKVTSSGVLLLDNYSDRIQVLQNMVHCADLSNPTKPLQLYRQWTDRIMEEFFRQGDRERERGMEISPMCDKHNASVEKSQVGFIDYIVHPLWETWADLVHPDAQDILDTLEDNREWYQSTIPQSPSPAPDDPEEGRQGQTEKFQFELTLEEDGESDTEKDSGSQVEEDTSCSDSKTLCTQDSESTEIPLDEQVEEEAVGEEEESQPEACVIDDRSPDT

Tested on in one test: not listed separately
Kind of test: Inhibition of cGMP stimulated pig PDE2A. Set-up: species or system Sus scrofa.
The compound `CCCCCC[C@H]([C@H](C)O)n1cnc2c(N)ncnc21` (relative stereo) [(+)-EHNA] gave an IC50 of 2000 nM. In other words, the single-digit micromolar range.

Tested on in another test: not listed separately
Kind of test: Inhibition of cGMP activated PDE2 (unknown origin). Set-up: species or system Homo sapiens.
The compound `COc1ccc(Cc2nc3c(ncn3C(CCCc3ccccc3)C(C)=O)c(=O)[nH]2)cc1OC` (centres undefined) had an IC50 of 0.6 nM. The compound `CCCCCC[C@H]([C@H](C)O)n1cnc2c(N)ncnc21` (relative stereo) [(+)-EHNA] gave an IC50 of 700 nM.

A further test has as its target Phosphodiesterase 4 (Homo sapiens, UniProt P27815+Q08499+Q07343+Q08493). The experiment in a line: Inhibition of PDE4 (unknown origin). The format is protein assay.
In turn, `CC1(NC(=O)c2cn(-c3cccc(-c4ccc([C@@H]5C[C@H]5C(=O)O)cc4)c3)c3ncccc3c2=O)CC1` (relative stereo) returned an IC50 of 0.58 nM. That is a sub-nanomolar value. The compound `O=C(NCC1CC1)c1cn(-c2cccc(-c3ccc([C@@H]4C[C@H]4C(=O)O)cc3)c2)c2ncccc2c1=O` (relative stereo) displayed an IC50 of 0.35 nM.

Compound `CC(C)(Cc1ccc(-c2cccc(-n3cc(C(=O)NC4CC4)c(=O)c4cccnc43)c2)cc1)C(=O)O` returned an IC50 of 0.88 nM. Against the preceding compound, the IC50 is about 2.5-fold higher. Consider `CCCCCC[C@H]([C@H](C)O)n1cnc2c(N)ncnc21` (relative stereo) [(+)-EHNA], for which the IC50 was found to be 1700 nM.

With `O=C(NC1CC1)c1cn(-c2cccc(-c3ccc([C@@H]4C[C@H]4c4nnn[nH]4)cc3)c2)c2ncccc2c1=O` (relative stereo), the IC50 is given as 0.55 nM. The same measure, in the same setting: under `O=C(NC1CC1)c1cn(-c2cccc(C#Cc3ccc[n+]([O-])c3)c2)c2ncccc2c1=O` [MK-0873] stands 5.1 nM; under `CC(C)(CC(=O)O)c1ccc(-c2cccc(-n3cc(C(=O)NC4CC4)c(=O)c4cccnc43)c2)cc1`, 0.85 nM; under `O=C(NC1CC1)c1cn(-c2cccc(-c3ccc([C@@H]4C[C@@H]4C(=O)O)c(F)c3)c2)c2ncccc2c1=O` (relative stereo), 0.53 nM. As to `O=C(NC1CC1)c1cn(-c2cccc(-c3ccc([C@@H]4C[C@H]4C(=O)O)cc3)c2)c2ncccc2c1=O` (relative stereo), the IC50 is listed as 0.57 nM. Still for that read-out and setting: next, `O=C(NC1(O)CC1)c1cn(-c2cccc(-c3ccc([C@@H]4C[C@H]4C(=O)O)cc3)c2)c2ncccc2c1=O` (relative stereo): 17 nM. The compound `O=C(NC1CC1)c1cn(-c2cccc(-c3ccc([C@@H]4C[C@@H]4C(=O)O)cc3)c2)c2ncccc2c1=O` (relative stereo) registered an IC50 of 1.6 nM. For `O=C(NCC(F)(F)F)c1cn(-c2cccc(-c3ccc([C@@H]4C[C@H]4C(=O)O)cc3)c2)c2ncccc2c1=O` (relative stereo), the IC50 amounted to 0.51 nM. This IC50 is about 3.1-fold lower than that of the compound before. For the compound `O=C(NC1CCC1)c1cn(-c2cccc(-c3ccc([C@@H]4C[C@H]4C(=O)O)cc3)c2)c2ncccc2c1=O` (relative stereo), the IC50 was found to be 0.52 nM.

Compound `CC(C)(c1cc(-c2cccc(-c3ccc([C@@H]4C[C@H]4C(=O)O)cc3)c2)c2ncccc2c1)S(C)(=O)=O` (relative stereo) had an IC50 of 0.32 nM. In the case of `CC(C)(C)NC(=O)c1cn(-c2cccc(-c3ccc([C@@H]4C[C@H]4C(=O)O)cc3)c2)c2ncccc2c1=O` (relative stereo), the IC50 turned out to be 32 nM. `O=C(NC1CC1)c1cn(-c2cccc(-c3cccc([C@@H]4C[C@H]4C(=O)O)c3)c2)c2ncccc2c1=O`: the IC50 is on record as 0.54 nM.

For the compound `O=C(NC1CC1)c1cn(-c2cccc(-c3ccccc3[C@@H]3C[C@H]3C(=O)O)c2)c2ncccc2c1=O` (relative stereo), the IC50 is listed as 4.6 nM. Against the preceding compound, the IC50 is about 8.5-fold higher.

Tested on in the next test: not listed separately
The experiment in a line: Inhibition of bovine PDE2. Set-up: species or system Bos taurus.
On to `COc1ccc(Cc2nc(O)c3c(C)nc([C@@H](CCCc4ccccc4)[C@@H](C)O)n3n2)cc1OC`, for which the IC50 was 2 nM.

The next test concerns the target 3',5'-cyclic-AMP phosphodiesterase 4D (Homo sapiens, UniProt Q08499). The experiment in a line: Inhibition of PDE4D3 (unknown origin).
On to `COc1ccc([C@@H]2CNC(=O)[C@@H](Cc3cccc(C)c3)C2)cc1OC1CCCC1`, for which half-maximal inhibition (IC50) was put at 150 nM.

For a further test, the target named is High affinity 3',5'-cyclic-AMP phosphodiesterase 7A (Homo sapiens, UniProt Q13946). Kind of test: Inhibition of PDE7A (unknown origin).
Chain of High affinity 3',5'-cyclic-AMP phosphodiesterase 7A (Q13946 whole entry): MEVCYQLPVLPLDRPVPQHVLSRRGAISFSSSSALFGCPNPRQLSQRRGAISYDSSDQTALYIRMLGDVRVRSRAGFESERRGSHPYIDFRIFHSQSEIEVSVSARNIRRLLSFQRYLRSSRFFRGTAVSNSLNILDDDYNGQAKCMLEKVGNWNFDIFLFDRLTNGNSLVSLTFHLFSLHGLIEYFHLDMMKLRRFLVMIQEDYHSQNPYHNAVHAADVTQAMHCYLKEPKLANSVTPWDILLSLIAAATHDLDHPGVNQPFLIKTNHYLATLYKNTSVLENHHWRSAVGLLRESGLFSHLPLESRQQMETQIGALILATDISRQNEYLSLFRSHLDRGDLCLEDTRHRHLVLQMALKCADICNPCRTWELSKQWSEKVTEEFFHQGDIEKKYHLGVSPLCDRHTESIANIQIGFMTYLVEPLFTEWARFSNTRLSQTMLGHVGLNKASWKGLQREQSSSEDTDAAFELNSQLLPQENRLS
As to `O=c1c2ccccc2[nH]c(=S)n1-c1ccccc1`, the IC50 turned out to be 5500 nM. In other words, the single-digit micromolar range.

For another test, the target named is cGMP-specific 3',5'-cyclic phosphodiesterase (Homo sapiens, UniProt O76074). Kind of test: Inhibition of PDE5 (unknown origin).
Regarding `COc1ccc(CNc2c(CO)cnc3c(NC4CC4)cc(C#N)cc23)cc1Cl`, the IC50 amounted to 0.27 nM.

In the case of `COc1ccc(CNc2c(CO)cnc3c(NCCN(C)C)cc(C#N)cc23)cc1Cl`, the IC50 was found to be 0.27 nM. On the same count and under the same terms, under `COc1ccc(CNc2c(CO)cnc3c(N(C)C)cc(C#N)cc23)cc1Cl` stands 0.27 nM. Take `COc1ccc(CNc2c(CO)cnc3c(N4CCOCC4)cc(C#N)cc23)cc1Cl`: the IC50 amounted to 0.27 nM. Compound `CCNc1cc(C#N)cc2c(NCc3ccc(OC)c(Cl)c3)c(CO)cnc12` returned an IC50 of 0.27 nM. This lies in the sub-nanomolar range.

Tested on in the next test: not listed separately
The experiment in a line: Inhibition of PDE9 (unknown origin). Also on record: species or system Homo sapiens.
With `C[C@H](Cc1nn2c(-c3ccccc3Cl)ncc2c(=O)[nH]1)C(F)(F)F`, the 50% inhibitory concentration (IC50) came to 55 nM.

What is called IC50 is the concentration that gives 50% inhibition. Lower therefore signals greater potency in that assay.
